In data set [1] the test system is NAD+/NADH ratio in PSN1 cells. Description: NAD/NADH quantification, PSN1 cells. The class given is cell-based. The note with it: 15 µM, 6 h. The protocol:
(§1) All chemicals were purchased from Aldrich Chemicals in their highest purity and used without further purification. Deuterated dimethylsulfoxide (DMSO-d^6) and deuterated chloroform (CDCl3) were purchased from CDN Isotopes. NMR spectra were recorded on Bruker advance 400 and 100 spectrometers. Coupling constants are given in hertz (Hz) and chemical shifts are given in parts per million (ppm, δ) measured relative to the residual solvent (the multiplicity of the signals are given as s: singlet, d: doublet, t: triplet, and m: multiplet). High-resolution mass spectra (HRMS) were recorded on a TSQ Quantum Ultra (Thermo Scientific) triple quadrupole with accurate mass option instrument (Université de Montréal Mass Spectrometry Facility). […] Transport and depolarization studies as well as absorbance measurements were performed on a Varian Cary Eclipse fluorescence spectrophotometer. The hemolysis assays were performed on a Fluostar Optima plate reader. […] A suitable crystal was selected and analysed on a Bruker Venture Metaljet diffractometer. Crystal violet retention assay was used for cell growth assays and IC50 were determined using Prism (GraphPad). NAD/NADH quantitation colorimetric kit (#K337-100) from Biovision was used according to manufacturer’s instructions. ECAR (extracellular acidification rate) and OCR of KP4 cells (oxygen consumption rate) were measured on a Seahorse XF-24 (Agilent). […]

For data set [2], the system named is NAD+/NADH ratio in KP4 cells. Description: NAD/NADH quantification, KP4 cells. The data set is classed as cell-based, human. The protocol:
as §1

In data set [3] the test system is KP4 cells sub-cutaneous xenografts. Description: KP4 sub-cutaneous xenografts in nude mice. The note with it: 50 mg/kg/day IP, 5 day/week. The source says: This dose was chosen from previous work on biguanides to treat mice with pancreatic cancer.
Figure 5 Progression of the volume of KP4 cells sub-cutaneous xenografts performed in nude mice over 37 days. […] (B) Body weight of mice seven days after treatment. […] Representative images shown. Scale bar = 100 µm. […] Results are shown in graphics comparing the percentage of cells stained in each category and the intensity of staining. (E,G) Images of the most representative phenotypes for KI67 staining (E) and cleaved caspase 3 (G).
Experimental. All experiments were performed in accordance to the rules of the in vivo ethical committe of University of Montreal (CDEA #17-103). 6-7 weeks old female nude mice (Hsd:Athymic Nude- Foxn1nu, Envigo) were implanted sub-cutaneously with 750.000 KP4 cells in 100μl of a sterile mix of 20% Matrigel (Corning) in saline solution. Tumor volume was determined by using a caliper, following the formula 4/3*Π*(L*W*T) were L represent the length of the tumor, W, the width, and T, the thickness (all measured in millimeter). […] The compounds were dissolved in the vehicle: 45% Propyleneglycol (Sigma-Aldrich) +5% Tween 80 (Sigma-Aldrich) + ddH2O.

For data set [4], the system named is mitochondria of KP4 cells expressing pMXs-3XHA-EGFP-OMP25. Put plainly: Mitochondrial permeation and accumulation (anti-HA IP, MALDI-MS). The note with it: 15 µM, 3 h. The data set is classed as cell-based, human. The protocol: Figure 2 (A) Partition of compounds in an U-tube experiment. Concentration of biguanide on the trans-side of the U-tube at 48 h and 72 h at 25 °C, after addition of 250 µM of biguanide on the cis-side. (B) Variation in the internal pH of HPTS-containing EYPC liposomes. Intravesicular solution: 1 mM HPTS, 10 mM HEPES, and 100 mM NaCl, adjusted to pH = 7.4, and extravesicular solution: 10 mM HEPES and 100 mM NaCl, adjusted to pH = 7.4. Biguanidiums were injected after 50 s at 5 mM (50 mol% relative to the 10 mM EYPC concentration), a NaOH pulse was induced at 300 s, and the liposomes were lysed with Triton-X at 550 s. Each curve is the average of three independent measurements. (C) Fluorescence of safranin O in the EYPC liposomes. Biguanidium salts were injected at 5 mM (50 mol% relative to the 10 mM EYPC concentration) at 50 s. Each curve is the average of three independent measurements. […] Mitochondrial isolation was performed according to the previously reported protocol.

Data set [5] has as its system AMPK. Description: Immunoblots of AMPK T172 and ACC S79 phosphorylation, KP4 cells. The data set is classed as cell-based, human. The note with it: 15 µM, 24 h. Here is the method:
Figure 3 Effects of biguanides on cell proliferation and viability in pancreatic cancer cells. […]. […] | decimal sign comma or point
. […]. Experimental. Cells were rinsed twice with 1X PBS, and lysed in Laemmli 2x (4% SDS, 20% glycerol, 120 mM Tris-HCl pH 6.8). Laemmli extracts were boiled for 5 minutes, then the concentration was assessed with NanoDrop (ThermoFisher) and equalized between samples. Lysates were supplemented with 10% beta-mercaptoethanol and 0.05% bromophenol blue and boiled again for 5 minutes. 25 µg of extracts were loaded on SDS-PAGE then transferred on nitrocellulose membranes for 1h30 at 130V. Membranes were rinsed in 1XPBS1-0.05% Tween-20 then blocked for 1h in 1XPBS, 0.05%-Tween-20 5% Milk. Membranes were rinsed again 3 x 10 min in PBS-Tween, then incubated overnight at 4°C with the following primary antibodies in 1XPBS-0.1%BSA, 0.02%Sodium azide: anti-phospho-AMPK T172 (1:1000, Rabbit, 2531S, Cell Signaling), anti-AMPKalpha (1:1000, Rabbit, 2532, Cell Signaling), anti-phospho-ACC S79 (1:1000, Rabbit Polyclonal, 3661S, Cell Signaling), or incubated for 1h at RT with anti-beta-Actin (1:2000, Mouse, 3700, Cell Signaling). […]
(In western blotting, separated proteins are transferred to a membrane and probed.)

Data set [6] has as its system KP4 cells. Put plainly: Cell death assay (trypan blue), KP4 cells. The class given is cell-based, human. The note with it: 15 µM for 24 h. An excerpt: Experimental. […] At the end of the treatments, adherent cells were recovered by trypsinization, along with floating cells recovered by centrifugation of the culture medium. Floating and adherent cells were pooled together. The faction of dead cells was quantified by counting the proportion of trypan blue-positive (dead cells) and the proportion of living cells (trypan blue-negative).

Regarding `N=C(N)NC(=N)NCc1ccc(C#Cc2ccccc2)cc1` [1b, 4-(phenylethynyl)benzylbiguanide], the “Decrease of NAD+/NADH ratio” value in data set [1] is reported as 25%. The “Decrease of NAD+/NADH ratio” value in data set [2] (KP4 cells, 15 µM, 18 h) amounted to 40%. Also, the “Fold lower concentration than metformin for AMPK activation, decrease of NAD+/NADH ratio and mitochondrial respiration” value in data set [2] (abstract) turned out to be 800 fold. Also, in data set [3], the “Effect on body weight” value was “did not affect body weight” and the Tolerability in vivo entry is “well tolerated”. The “Effect on tumor volume” value in data set [3] (from day 11 post engraftment, 37 days) was “significantly reduced tumor volume”. Further, in data set [4], the Mitochondrial penetration result is on record as “able to efficiently penetrate mitochondria”. The “AMPK activation (phosphorylation of AMPK T172 and ACC)” value in data set [5] is given as “induced AMPK activation”. In data set [6], the “Increase of the fraction of dead KP4 cells” value is listed as ~ 20%.

Values taken from paper PMC8110578, “Phenylethynylbenzyl-modified biguanides inhibit pancreatic cancer tumor growth” (Scientific Reports, 2021).
